The target of one series is SARS-CoV-2 S protein (Severe acute respiratory syndrome coronavirus 2, UniProt P0DTC2). Put plainly: cell-based. Particulars: HEK-293T, read-out: IC90, inhibition of S-mediated fusion.
A further series concerns SARS-CoV-2. Particulars: 72 h.

In the case of `CC[C@H](C)[C@H](NC(=O)[C@H](C)NC(=O)[C@H](CCC(=O)O)NC(=O)[C@H](CCC(=O)O)NC(=O)[C@H](CC(C)C)NC(=O)[C@H](CCCCN)NC(=O)[C@H](CCCCN)NC(=O)[C@H](CCSC)NC(=O)[C@H](CCC(=O)O)NC(=O)[C@H](Cc1ccc(O)cc1)NC(=O)[C@H](CCC(=O)O)NC(=O)[C@H](CC(C)C)NC(=O)[C@H](CC(=O)O)NC(=O)[C@H](CC(C)C)NC(=O)[C@H](Cc1ccccc1)NC(=O)[C@@H](NC(=O)[C@@H](NC(=O)[C@H](CC(N)=O)NC(=O)[C@@H](NC(=O)[C@H](CCC(N)=O)NC(=O)[C@H](CC(=O)O)NC(=O)[C@H](CC(C)C)NC(=O)[C@H](CO)NC(C)=O)[C@@H](C)CC)C(C)C)[C@@H](C)O)C(=O)N[C@@H](CCCCN)C(=O)N[C@@H](CCCCN)C(=O)N[C@@H](CC(C)C)C(=O)N[C@@H](CCC(=O)O)C(=O)N[C@@H](CCC(=O)O)C(=O)N[C@@H](CO)C(=O)N[C@@H](Cc1ccc(O)cc1)C(=O)N[C@H](C(=O)N[C@@H](CC(=O)O)C(=O)N[C@@H](CC(C)C)C(=O)N[C@@H](CCCCN)C(=O)N[C@@H](CCC(=O)O)C(=O)N[C@@H](CC(C)C)C(=O)NCC(=O)N[C@@H](CO)C(=O)NCC(=O)N[C@@H](CO)C(=O)NCC(=O)N[C@@H](CSCC(=O)NCCOCCOCCOCCOCCC(=O)O[C@H]1CC[C@@]2(C)C(=CC[C@H]3[C@@H]4CC[C@H]([C@H](C)CCCC(C)C)[C@@]4(C)CC[C@@H]32)C1)C(N)=O)[C@@H](C)CC` [EK1 lipopeptide], the IC90 (as a rule, the point of the concentration-response curve where the effect stands at 90%) on SARS-CoV-2 S protein was more than 900 nM. Further, in the series on SARS-CoV-2, the IC50 (usually the point on the concentration scale where inhibition reaches its midpoint) is approximately 80 nM. Besides, the “toxicity (MTT assay)” value in the series with Vero E6 cells is reported as less than 20%.

The values are drawn from patent publication US20250257099A1 (priority 2022, published 2025).
